Literature values, collected in PMC2930141 (Biochimica et biophysica acta, 2010).

Columns and labels:
[1] = target: human carbonic anhydrase I (hCA I) (Homo sapiens, UniProt P00915)
hCA I = conditions: bound to hCA I
[2] = aqueous

Chain of human carbonic anhydrase I (hCA I) (P00915 whole entry): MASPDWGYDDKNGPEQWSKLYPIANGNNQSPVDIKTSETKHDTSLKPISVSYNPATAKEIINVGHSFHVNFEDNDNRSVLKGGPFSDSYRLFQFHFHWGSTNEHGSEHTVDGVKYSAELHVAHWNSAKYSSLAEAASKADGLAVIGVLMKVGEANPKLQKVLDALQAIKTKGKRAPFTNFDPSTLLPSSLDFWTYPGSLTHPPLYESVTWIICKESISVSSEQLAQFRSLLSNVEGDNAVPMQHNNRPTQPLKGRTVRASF

CN(C)c1cccc2c(S(N)(=O)=O)cccc12 [dansylamide, 5-dimethylamino-1-naphthalene sulfonamide]
emission maximum of the enzyme-bound fluorophore [1]: 458 nm
pKa from pH dependent binding affinity (hCA I): 6.3
pKa from pH dependent binding affinity (hCA II): 6.4

NS(=O)(=O)c1ccccc1 [benzenesulfonamide]
pKa of sulfonamide group [2]: 9.79
